The record followed here is US11312712B2, “Azabenzimidazoles and their use as AMPA receptor modulators” (Janssen Pharmaceutica NV, priority 2015, dated 2022).

GluA1o-γ8 (GRIA1o-CACNG8 fusion construct), sequence (P42261 other isoform, or with tags, fused parts or gaps): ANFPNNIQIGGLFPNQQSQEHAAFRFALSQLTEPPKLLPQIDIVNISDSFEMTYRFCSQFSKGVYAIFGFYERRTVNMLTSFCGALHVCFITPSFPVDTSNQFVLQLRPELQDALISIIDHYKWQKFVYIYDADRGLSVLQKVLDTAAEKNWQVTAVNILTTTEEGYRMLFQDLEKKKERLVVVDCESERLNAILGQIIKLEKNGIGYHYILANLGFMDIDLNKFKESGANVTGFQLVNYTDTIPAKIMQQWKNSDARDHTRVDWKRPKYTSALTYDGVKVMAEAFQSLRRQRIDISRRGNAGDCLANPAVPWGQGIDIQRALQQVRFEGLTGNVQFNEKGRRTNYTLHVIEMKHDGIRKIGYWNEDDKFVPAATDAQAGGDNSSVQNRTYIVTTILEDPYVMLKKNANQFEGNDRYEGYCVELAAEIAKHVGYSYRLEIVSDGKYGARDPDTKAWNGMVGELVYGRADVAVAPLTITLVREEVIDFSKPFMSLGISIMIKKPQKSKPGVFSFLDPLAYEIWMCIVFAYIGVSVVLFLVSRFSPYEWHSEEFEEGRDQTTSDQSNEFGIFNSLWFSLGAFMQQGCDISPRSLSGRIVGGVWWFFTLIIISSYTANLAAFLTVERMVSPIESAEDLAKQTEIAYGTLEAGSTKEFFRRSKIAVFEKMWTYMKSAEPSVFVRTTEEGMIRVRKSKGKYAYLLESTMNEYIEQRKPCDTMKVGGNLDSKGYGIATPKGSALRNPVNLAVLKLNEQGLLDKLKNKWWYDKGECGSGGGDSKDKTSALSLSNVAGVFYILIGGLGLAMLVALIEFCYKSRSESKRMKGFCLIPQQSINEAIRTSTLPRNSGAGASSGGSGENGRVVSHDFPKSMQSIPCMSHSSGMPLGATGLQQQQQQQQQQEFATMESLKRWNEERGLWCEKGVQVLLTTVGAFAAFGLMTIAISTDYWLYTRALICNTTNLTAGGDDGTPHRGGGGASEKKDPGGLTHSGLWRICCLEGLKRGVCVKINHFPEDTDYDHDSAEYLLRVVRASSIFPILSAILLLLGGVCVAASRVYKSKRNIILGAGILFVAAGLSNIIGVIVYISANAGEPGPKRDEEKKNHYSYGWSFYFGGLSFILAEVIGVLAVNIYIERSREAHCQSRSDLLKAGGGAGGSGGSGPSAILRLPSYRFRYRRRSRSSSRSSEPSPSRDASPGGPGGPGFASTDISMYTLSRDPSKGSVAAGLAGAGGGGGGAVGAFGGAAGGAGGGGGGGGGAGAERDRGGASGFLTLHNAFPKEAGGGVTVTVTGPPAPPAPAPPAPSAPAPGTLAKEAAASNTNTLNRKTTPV

The target of this experiment is GluA1o-γ8 (GRIA1o-CACNG8 fusion construct) (Homo sapiens (Human), UniProt P42261+Q8WXS5). The experiment can be described thus: Calcium flux assay (FLIPR), inhibition of TARP γ8 dependent AMPA receptor activity. Format: cell-based. The settings on record: GluA1o-γ8 (GRIA1o-CACNG8 fusion) in HEK293 cells, calcium flux after 15 μM glutamate. The source says:
This assay was used to test compounds for their ability to inhibit TARP γ8 dependent AMPA receptor activity. The AMPA receptor is a non-selective cation channel activated by glutamate. Ionotropic glutamate receptors normally desensitize too rapidly to allow detectable calcium influx in a FLIPR assay (Strange et al. (2006). “Functional characterisation of homomeric ionotropic glutamate receptors GluR1-GluR6 in a fluorescence-based high throughput screening assay.” Comb Chem High Throughput Screen 9(2): 147-158). But, this desensitization is incomplete, and a substantial steady-state current remains in the sustained presence of glutamate (Cho et al. (2007). “Two families of TARP isoforms that have distinct effects on the kinetic properties of AMPA receptors and synaptic currents.” Neuron 55(6): 890-904).
An in vitro assay was used to determine the potency of test compounds as inhibitors of the glutamate response of the channel formed by GluA1o-γ8. To ensure a 1:1 stoichiometry of GluA1o and γ8 subunits in the expressed channel, a fusion of the cDNAs for GRIA1o and CACNG8 was used. Following Shi et al (2009) “The stoichiometry of AMPA receptors and TARPs varies by neuronal cell type.” Neuron 62(5): 633-640), the C-terminus of the cDNA for GRIA1o was fused to the N-terminus of the cDNA for γ8. The linker sequence was QQQQQQQQQQEFAT. Channels expressed with this construct appear to have similar properties to channels formed by co-expression of GRIA1o with an excess of CACNG8 (Shi et al. 2009). A clonal cell line in HEK293 cells stably expressing this construct, with a geneticin selection marker, was generated for use in this assay.
Cell expressing the GRIA1o-CACNG8 fusion construct were grown in a monolayer in 96- or 384-well microtiter plates. They were washed with assay buffer (135 mM NaCl, 4 mM KCl, 3 mM CaCl2, 1 mM MgCl2, 5 mM glucose, 10 mM HEPES, pH 7.4, 300 mOs) using a Biotek EL405 plate washer. The cells were then loaded with a calcium-sensitive dye (Calcium-5 or Calcium-6, Molecular Devices) and the test compounds at a range of concentrations. Calcium flux following the addition of 15 μM glutamate was monitored using a Molecular Devices FLIPR Tetra. The fluorescence in each well was normalized to the fluorescence of negative and positive control wells. The negative control wells had no added compounds, and the positive control wells had been incubated with 10 μM CP465022 (a non-subtype-selective AMPA receptor antagonist) (Lazzaro et al. (2002). “Functional characterization of CP-465,022, a selective, noncompetitive AMPA receptor antagonist.” Neuropharmacology 42(2): 143-153). The responses to glutamate as functions of the test compound concentrations were fitted to a four-parameter logistic function. The fitted parameter corresponding to the midpoint was taken to be the potency of inhibition of the compound. The data in Table 4 below illustrates the observed potentcy for the compounds described herein. pIC50 refers to the negative log of the IC50 in molar.
In general terms: Calcium assays in cells follow changes in intracellular calcium, usually with a dye or a luminescent sensor.
Turning to `Cc1nc2ccc(C(F)(F)F)nc2n1-c1ccc2[nH]c(=O)sc2c1` [Example 46, 6-[2-Methyl-5-(trifluoromethyl)imidazo[4,5-b]pyridin-3-yl]-3H-1,3-benzothiazol-2-one], the IC50 (in general, the midpoint of a concentration-inhibition curve) is 0.00631 µM.

`Cc1nc2ccc(C(F)(F)F)nc2n1-c1ccc2c(c1)CC(=O)N2` [Example 47, 5-[2-Methyl-5-(trifluoromethyl)imidazo[4,5-b]pyridin-3-yl]indolin-2-one]: the IC50 is 0.0631 µM.

As for `O=C1Cc2cc(-n3c(C4CCCCC4)nc4ccc(C(F)(F)F)nc43)ccc2N1` [Example 48, 5-[2-Cyclohexyl-5-(trifluoromethyl)imidazo[4,5-b]pyridin-3-yl]indolin-2-one], the IC50 was 0.000631 µM.

As for `O=C1Cc2cc(-n3c(C4CCC4)nc4ccc(C(F)(F)F)nc43)ccc2N1` [Example 49, 5-[2-Cyclobutyl-5-(trifluoromethyl)imidazo[4,5-b]pyridin-3-yl]indolin-2-one], the IC50 was 0.000316 µM.

In the case of `O=C1Cc2cc(-n3c(C4CCOCC4)nc4ccc(C(F)(F)F)nc43)ccc2N1` [Example 50, 5-[2-Tetrahydropyran-4-yl-5-(trifluoromethyl)imidazo[4,5-b]pyridin-3-yl]indolin-2-one], the IC50 is 0.0631 µM.

As for `CC(C)Cc1nc2ccc(C(F)(F)F)nc2n1-c1ccc2c(c1)CC(=O)N2` [Example 51, 5-[2-Isobutyl-5-(trifluoromethyl)imidazo[4,5-b]pyridin-3-yl]indolin-2-one], the IC50 is 0.01 µM.

With `O=C1Cc2cc(-n3c(CCC(F)(F)F)nc4ccc(C(F)(F)F)nc43)ccc2N1` [Example 53, 5-[5-(Trifluoromethyl)-2-(3,3,3-trifluoropropyl)imidazo[4,5-b]pyridin-3-yl]indolin-2-one], the IC50 was 0.0794 µM.

With `O=C1Cc2cc(-n3c(CC4CCCC4)nc4ccc(C(F)(F)F)nc43)ccc2N1` [Example 54, 5-[2-(Cyclopentylmethyl)-5-(trifluoromethyl)imidazo[4,5-b]pyridin-3-yl]indolin-2-one], the IC50 was 0.00631 µM.

For the molecule `O=C1Cc2cc(-n3c(C4CC4)nc4ccc(C(F)(F)F)nc43)ccc2N1` [Example 55, 5-[2-Cyclopropyl-5-(trifluoromethyl)imidazo[4,5-b]pyridin-3-yl]indolin-2-one], the IC50 is 0.00794 µM.

`O=C1Cc2cc(-n3c(Cc4cnccn4)nc4ccc(C(F)(F)F)nc43)ccc2N1` [Example 57, 5-[2-(Pyrazin-2-ylmethyl)-5-(trifluoromethyl)imidazo[4,5-b]pyridin-3-yl]indolin-2-one]: the IC50 is 15.8 µM.

For `FC(F)(F)c1ccc2nc(C3CCCC3)n(-c3ccc4[nH]ccc4c3)c2n1` [Example 58, 2-Cyclopentyl-3-(1H-indol-5-yl)-5-(trifluoromethyl)imidazo[4,5-b]pyridine], the IC50 was 0.0126 µM.

`CC(C)(C)c1nc2ccc(C(F)(F)F)nc2n1-c1ccc2[nH]ccc2c1` [Example 59, 2-tert-Butyl-3-(1H-indol-5-yl)-5-(trifluoromethyl)imidazo[4,5-b]pyridine]: the IC50 was 0.251 µM.

Consider `O=C1Cc2cc(-n3c(C4CCCC4)nc4ccc(C(F)(F)F)nc43)ccc2N1` [Example 60, 5-[2-Cyclopentyl-5-(trifluoromethyl)imidazo[4,5-b]pyridin-3-yl]indolin-2-one], for which the IC50 is 0.002 µM.

`CC(C)(C)c1nc2ccc(C(F)(F)F)nc2n1-c1ccc2c(c1)CC(=O)N2` [Example 61, 5-[2-tert-Butyl-5-(trifluoromethyl)imidazo[4,5-b]pyridin-3-yl]indolin-2-one]: the IC50 is 0.0126 µM.

In the case of `Fc1ccc(-c2nc3c(N4CCOCC4)ccnc3n2-c2ccc3[nH]ncc3c2)cc1` [Example 62, 4-[2-(4-Fluorophenyl)-3-(1H-indazol-5-yl)imidazo[4,5-b]pyridin-7-yl]morpholine], the IC50 was 0.00631 µM.

Regarding `O=C1Cc2cc(-n3c(-c4ccc(F)cc4)nc4c(N5CCOCC5)ccnc43)ccc2N1` [Example 63, 5-[2-(4-Fluorophenyl)-7-morpholino-imidazo[4,5-b]pyridin-3-yl]indolin-2-one], the IC50 is 0.00316 µM.

Turning to `O=c1[nH]c2ccc(-n3c(-c4ccccc4)nc4ccc(N5CCCCC5)nc43)cc2s1` [Example 64, 6-[2-Phenyl-5-(1-piperidyl)imidazo[4,5-b]pyridin-3-yl]-3H-1,3-benzothiazol-2-one], the IC50 was 0.00501 µM.

For `O=c1[nH]c2ccc(-n3c(-c4ccccc4)nc4ccc(N5CCOCC5)nc43)cc2s1` [Example 65, 6-(5-Morpholino-2-phenyl-imidazo[4,5-b]pyridin-3-yl)-3H-1,3-benzothiazol-2-one], the IC50 was 0.316 µM.

`CN(C)c1ccc2nc(-c3ccccc3)n(-c3ccc4[nH]c(=O)sc4c3)c2n1` [Example 66, 6-[5-(Dimethylamino)-2-phenyl-imidazo[4,5-b]pyridin-3-yl]-3H-1,3-benzothiazol-2-one]: the half-maximal inhibitory concentration (IC50) was 0.0126 µM.

Turning to `O=c1[nH]c2ccc(-n3c(-c4ccccc4)nc4ccc(C(F)F)nc43)cc2s1` [Example 67, 6-(5-(Difluoromethyl)-2-phenyl-3H-imidazo[4,5-b]pyridin-3-yl)benzo[d]thiazol-2(3H)-one], the IC50 is 0.0001 µM.

As for `O=c1[nH]c2ccc(-n3c(-c4ccc(C(F)F)cc4)nc4cccnc43)cc2s1` [Example 68, 6-[2-[4-(Difluoromethyl)phenyl]imidazo[4,5-b]pyridin-3-yl]-3H-1,3-benzothiazol-2-one], the IC50 is 0.0251 µM.

For `O=c1[nH]c2ccc(-n3c(-c4ccccc4)nc4c(C(F)F)ccnc43)cc2s1` [Example 69, 6-[7-(Difluoromethyl)-2-phenyl-imidazo[4,5-b]pyridin-3-yl]-3H-1,3-benzothiazol-2-one], the IC50 was 0.00126 µM.

`CC(C)c1ccnc2c1nc(-c1ccccc1)n2-c1ccc2[nH]c(=O)sc2c1` [Example 70, 6-(7-Isopropyl-2-phenyl-imidazo[4,5-b]pyridin-3-yl)-3H-1,3-benzothiazol-2-one]: the IC50 is 0.000631 µM.

Turning to `O=c1[nH]c2ccc(-n3c(-c4ccc(F)cc4)nc4ccc(CO)nc43)cc2s1` [Example 71, 6-(2-(4-Fluorophenyl)-5-(hydroxymethyl)-3H-imidazo[4,5-b]pyridin-3-yl)benzo[d]thiazol-2(3H)-one], the IC50 was 0.0398 µM.

On to `Cc1cc(O)c2nc(-c3ccc(F)cc3)n(-c3ccc4[nH]c(=O)sc4c3)c2n1` [Example 72, 6-(2-(4-Fluorophenyl)-7-hydroxy-5-methyl-3H-imidazo[4,5-b]pyridin-3-yl)benzo[d]thiazol-2(3H)-one], for which the IC50 is 0.0251 µM.

As for `O=C1Cc2cc(-n3c(CCCO)nc4ccc(C(F)(F)F)nc43)ccc2N1` [Example 73, 5-(2-(3-Hydroxypropyl)-5-(trifluoromethyl)-3H-imidazo[4,5-b]pyridin-3-yl)indolin-2-one], the IC50 is 1.26 µM.

With `Cc1ccc2nc(C3CCC3)n(-c3ccc4c(c3)CC(=O)N4)c2n1` [Example 74, 5-(2-Cyclobutyl-5-methyl-imidazo[4,5-b]pyridin-3-yl)indolin-2-one], the IC50 was 0.0158 µM.

Take `CCc1nc2ccc(C)nc2n1-c1ccc2c(c1)CC(=O)N2` [Example 75, 5-(2-Ethyl-5-methyl-imidazo[4,5-b]pyridin-3-yl)indolin-2-one]: the IC50 is 0.251 µM.

Regarding `CC1(c2nc3ccc(C(F)(F)F)nc3n2-c2ccc3c(c2)CC(=O)N3)COC1` [Example 76, 5-[2-(3-Methyloxetan-3-yl)-5-(trifluoromethyl)imidazo[4,5-b]pyridin-3-yl]indolin-2-one], the IC50 is 0.501 µM.
